What all share (type): cell-based
Assay [1] has as its target T1, MRGPRX2 (Homo sapiens, UniProt Q96LB1).
T1 sequence (Q96LB1 1-330): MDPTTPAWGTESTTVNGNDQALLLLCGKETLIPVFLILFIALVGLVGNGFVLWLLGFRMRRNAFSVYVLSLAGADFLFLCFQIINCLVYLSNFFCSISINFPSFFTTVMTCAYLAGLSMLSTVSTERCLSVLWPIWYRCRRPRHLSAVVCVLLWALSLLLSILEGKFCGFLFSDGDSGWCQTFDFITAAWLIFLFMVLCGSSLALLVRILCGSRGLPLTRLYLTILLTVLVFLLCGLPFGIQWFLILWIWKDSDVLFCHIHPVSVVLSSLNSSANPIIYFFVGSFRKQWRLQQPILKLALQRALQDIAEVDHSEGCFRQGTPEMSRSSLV
In words: β-arrestin recruitment assay (antagonist mode), β-arrestin-CHO cells recombinantly expressing MRGPRX2. The conditions noted are these: for Ki: versus CST-14 (EC80 1,000 nM, EC50 483 nM), Cheng-Prusoff, read-out: β-Arrestin assay Ki ± SEM. Also noted: expressed in transfected cells.

Assay [2] has as its target T1, MRGPRX2. In words: β-arrestin assay (agonist mode), β-arrestin CHO cells recombinantly expressing MRGPRX2. As to conditions: for EC50: agonist test, read-out: β-Arrestin assay EC50 ± SEM; for β-Arrestin assay % activation: normalized to CST-14 (EC80 5,000 nM). The source says:
Eurofins DiscoverX (Fremont, CA, USA) provided engineered Chinese hamster ovary (CHO) cells stably expressing β-arrestin-2 fused to a large β-galactosidase fragment (enzyme acceptor, EA). These CHO-K1-β-arrestin-2 cells were commercially available (93-0164). CHO-K1-β-arrestin-2 cells that additionally expressed MRGPRX1, -2, or -4 fused to the fragment ProLink™ (PK) were also purchased from the same company (93-0919C2, 93-0309C2, and 3-0541C2A, respectively). CHO cells expressing MRGPRX3 were generated as previously […].[31] The cells were grown in F-12 Ham Nutrient Mixture (Life Technologies) supplemented with 10% FBS, 100 U/mL of penicillin, 100 µg/mL of streptomycin (PAN-Biotech), 300 μg/mL of hygromycin B (PAN-Biotech), and 800 μg/mL of gentamicin (PAN-Biotech) at 37 °C and 5% CO2.).
The assays were carried out as previously described.[22] […] After 30 min of incubation at 37 °C and 5% CO2, Cortistatin-14 (CST-14, Bioscience, Bristol, United Kingdom) or another MRGPRX2 agonist that served as a standard agonist was added, and the mixture was incubated for 90 min at 37 °C and 5% CO2. Next, a detection reagent (50 µL, DiscoverX) was added, and the mixture was incubated at room temperature in the dark for 60 min. Chemiluminescence was measured on a Mithras LB 940 plate reader (Berthold Technologies, Bad Wildbad, Germany). The results represent means ± SEM of three to five independent experiments, each in duplicates.
^d β-Arrestin CHO cells recombinantly expressing MRGPRX2
^f Percentage of activation of normalized to CST-14 (EC80 5,000 nM)

For assay [3], the target named is T1, MRGPRX2. The assay is described as follows: Ca2+ mobilization assay, LN229 cells overexpressing MRGPRX2. As to conditions: for Ki: versus CST-14 (EC80 800 nM, EC50 452 nM), Cheng-Prusoff, read-out: Ca2+ assay Ki ± SEM; for MRGPRX2 antagonistic potency in Ca2+ assay, in words: versus CST-14. Also noted: expressed in transfected cells; host or cells: LN229 human glioblastoma cells; plasmid pLXSN-MRGPRX2 (Addgene #213960). As to the method: Glioblastoma LN229-MRGPRX2 stably expressing MRGPRX2 (produced by retroviral transfection) were seeded into black sterile 96-well microplates at a density of 5 × 10^4 cells/well in 200 µL of DMEM/F12-Nut Mix medium, supplemented with 10% FCS, 100 U/mL of penicillin 100 µg/mL of streptomycin, and 200 µg/mL of G418 and incubated for 18–22 h.
The next day Fluo-4 AM Solution (1 mM) (Thermo Fisher Scientific) was prepared and used to prepare cell loading dye solution consisting of 4970 µL of Hank’s Buffered Saline Solution (HBSS) buffer, 15 µL of 20% Pluronic-F and 15 µL of 1 mM Fluo-4 AM. Next, the cell medium was removed and exchanged for 40 µL of dye solution per well (final concentration of Fluo-4 AM: 3 µM). The cell plate was incubated for 60 min in the dark at room temperature, then the dye solution was removed and replaced by 189 µL HBSS. Subsequently, 1 µL of antagonist diluted in DMSO was added and incubated for 30 min at room temperature and in the dark (final DMSO concentration 0.5%, v/v). CST-14 or another agonist prepared in HBSS as well as carbachol (final concentration 100 µM) were pipetted (10 µL) using a FlexStation® 3 Multi-Mode Microplate Reader. For the determination of baseline fluorescence, HBSS buffer containing solvent of the investigated compound was used. Fluorescence was measured for 120 intervals of 1 s (number of flashes: 10) at a wavelength of 525 nm (excitation 485 nm) using the SoftMax® Pro5.1 Microplate Data Acquisition & Analysis Software. Three independent experiments were performed in duplicates. Measurements are provided in relative fluorescence units and normalized to the maximal effect of CST-14.

Data on 28 molecules can be found in paper PMC12010006, “Subnanomolar MAS-related G protein-coupled receptor-X2/B2 antagonists with efficacy in human mast cells and disease models” (Signal Transduction and Targeted Therapy, 2025).

Molecules are shown by their SMILES.

For the molecule `CN(C)[C@@H]1CCN(c2cc(-c3ccccc3)nc3ccnn23)C1` [(R)-ZINC-3573, reference compound], in assay [1], the “EC80 of agonist, β-arrestin assay” value was 2000 nM. The EC50 in assay [1] (without antagonist, read-out: EC50 of (R)-ZINC-3573, shift assay) is 2020 ± 333 nM.
With `CCc1c(C)[nH]c2nc3ccccc3n2c1=O` [Compound 2], in assay [1], the Ki is 1050 nM. For the same molecule, in assay [2], the EC50 was above 10000 nM and the “β-Arrestin assay % activation” value is reported as -2%. The Ki in assay [3] is 238 nM.
With `Cc1[nH]c2nc3ccccc3n2c(=O)c1C` [Compound 3], the Ki in assay [1] worked out at 3780 nM. Also, in assay [2], the EC50 was above 10000 nM and the “β-Arrestin assay % activation” value amounted to 1%. In assay [3] (3-methyl compared to 3-ethyl (2)), the “fold decrease in potency” value is listed as 4 fold. For the same molecule, the Ki in assay [3] is 1040 nM.
`Cc1cc(=O)n2c(nc3ccccc32)[nH]1` [Compound 4]: in assay [2], the EC50 was above 10000 nM and the “β-Arrestin assay % activation” value was determined as 0%.
For `O=c1cc[nH]c2nc3ccccc3n12` [Compound 5, benzo[4,5]imidazo[1,2-α]pyrimidin-4(1H)-one], in that order: above 10000 nM and -1%.
`CCCc1cc(=O)n2c(nc3ccccc32)[nH]1` [Compound 6, 2-Propylbenzo[4,5]imidazo[1,2-a]pyrimidin-4(1H)-one]: in assay [1], the Ki is 4790 nM. Besides, in assay [2], the EC50 was above 10000 nM and the “β-Arrestin assay % activation” value is listed as 1%. Besides, the Ki in assay [3] is 4730 nM.
The like results for `CC(C)c1cc(=O)n2c(nc3ccccc32)[nH]1` [Compound 7] were, in that order, 1050 nM, above 10000 nM, 0% and 4260 nM.
Consider `CCCc1[nH]c2nc3ccccc3n2c(=O)c1CC` [Compound 8], for which, in assay [1], the inhibition constant (Ki) turned out to be 90.5 ± 7.03 nM. Besides, in assay [2], the EC50 is above 10000 nM and the “β-Arrestin assay % activation” value is recorded as -1%. Besides, the inhibition constant Ki in assay [3] came out at 25.8 nM.
For the molecule `CCCc1[nH]c2nc3ccccc3n2c(=O)c1CCC` [Compound 9], the Ki in assay [1] amounted to 69.7 ± 20.8 nM. In addition, in assay [2], the EC50 is above 10000 nM and the “β-Arrestin assay % activation” value is listed as -1%. Besides, the Ki in assay [3] is 16.6 ± 10.9 nM.
For `CCc1c(C(C)C)[nH]c2nc3ccccc3n2c1=O` [Compound 10], in assay [1], the Ki stood at 94.4 ± 63.8 nM. Besides, in assay [2], the EC50 is above 10000 nM and the “β-Arrestin assay % activation” value is listed as -1%. Further, in assay [3], the “fold increase in potency compared to hit compound 1” value worked out at 275 fold; the “MRGPRX2 antagonistic potency in Ca2+ assay, in words” value (shortened to “MRGPRX2 antagonistic potency”) is “subnanomolar potencies”; the Ki worked out at 0.895 nM.
Take `CCCc1c(C(C)C)[nH]c2nc3ccccc3n2c1=O` [Compound 11]: the values for the Ki in assay [1] and in assay [3] were 166 ± 69.7 nM and 43.3 ± 24.5 nM, respectively. Moreover, the EC50 in assay [2] is above 10000 nM. Moreover, in assay [2], the “β-Arrestin assay % activation” value is recorded as 1%.
Regarding `CCc1c(CC(C)C)[nH]c2nc3ccccc3n2c1=O` [Compound 12], in assay [1], the Ki turned out to be 152 ± 33.8 nM. For the same molecule, in assay [2], the EC50 was above 10000 nM and the “β-Arrestin assay % activation” value was -2%. For the same molecule, the Ki in assay [3] was found to be 18.5 ± 13.7 nM.
On to `CCc1c(C(C)(C)C)[nH]c2nc3ccccc3n2c1=O` [Compound 13], for which the Ki in assay [1] stood at 113 ± 42.3 nM; in assay [3], 8.44 nM. Moreover, the EC50 in assay [2] is above 10000 nM. For the same molecule, the “β-Arrestin assay % activation” value in assay [2] is recorded as -1%.
For the molecule `CCc1c(C2CC2)[nH]c2nc3ccccc3n2c1=O` [Compound 14], in assay [1], the Ki is 384 ± 214 nM. In addition, in assay [2], the EC50 was above 10000 nM and the “β-Arrestin assay % activation” value worked out at 0%. Besides, the Ki in assay [3] turned out to be 69.7 nM.
For `CCc1c(-c2ccccc2)[nH]c2nc3ccccc3n2c1=O` [Compound 15], in that order: 175 ± 49.5 nM, above 10000 nM, 0% and 364 nM.
For the molecule `CCc1c(-c2cccs2)[nH]c2nc3ccccc3n2c1=O` [Compound 16], in assay [2], the EC50 is above 10000 nM and the “β-Arrestin assay % activation” value is -2%.
As for `Cc1cc(=S)n2c(nc3ccccc32)[nH]1` [Compound 17], in assay [2], the EC50 is above 10000 nM and the “β-Arrestin assay % activation” value is -3%.
For the molecule `CC(C)c1cc(=S)n2c(nc3ccccc32)[nH]1` [Compound 18], the Ki in assay [1] is 48.2 ± 1.08 nM. In assay [2], the EC50 is above 10000 nM and the “β-Arrestin assay % activation” value is -1%. In assay [3], the “fold increase in potency compared to 7” value was around 3000 fold and the Ki was 1.42 nM.
For the molecule `CSc1cc(C(C)C)nc2nc3ccccc3n12` [Compound 19], in assay [2], the EC50 was above 10000 nM and the “β-Arrestin assay % activation” value is on record as -1%. Further, the “MRGPRX2 antagonistic potency” value in assay [3] is “completely inactive”.
For `CCc1c(C)n(C)c2nc3ccccc3n2c1=O` [Compound 20], in that order: above 10000 nM, 1% and “not tolerated”.
Turning to `CC(C)c1cc(=O)n2c3ccccc3n(C)c2n1` [Compound 21], in assay [2], the EC50 is above 10000 nM and the “β-Arrestin assay % activation” value is -1%. Moreover, the “MRGPRX2 antagonistic potency” value in assay [3] is “not tolerated”.
For `Cc1cc(=O)n2c(n1)oc1ccccc12` [Compound 22], in that order: above 10000 nM, 0% and “inactive”.
The like results for `Cc1cc(=O)n2c(n1)sc1ccccc12` [Compound 23] were, in that order, above 10000 nM, -1% and “inactive”.
As to `CCc1c(C(C)C)[nH]c2nc3cc(Cl)c(Cl)cc3n2c1=O` [Compound 25], in assay [1], the Ki came out at 155 ± 56.6 nM. For the same molecule, in assay [2], the EC50 is above 10000 nM and the “β-Arrestin assay % activation” value was found to be 1%. For the same molecule, the Ki in assay [3] is 2.98 nM.
Consider `CCc1c(C(C)C)[nH]c2nc3cc(Br)c(Br)cc3n2c1=O` [Compound 26], for which the values for the inhibition constant Ki in assay [1] and in assay [3] were 289 ± 119 nM and 13.3 nM, respectively. Besides, in assay [2], the EC50 is above 10000 nM. Moreover, the “β-Arrestin assay % activation” value in assay [2] was -1%.
Regarding `CCc1c(C(C)C)[nH]c2nc3ccc(C)cc3n2c1=O` [Compound 28], in assay [1], the Ki is 47.8 ± 9.77 nM. For the same molecule, in assay [2], the EC50 was above 10000 nM and the “β-Arrestin assay % activation” value is -3%. In assay [3], the “fold improved potency compared to 27” value worked out at 20 fold; the “MRGPRX2 antagonistic potency” value was “subnanomolar potencies”; the Ki was determined as 0.322 nM.
As for `CCc1c(C(C)C)[nH]c2nc3c(C)cccc3n2c1=O` [Compound 31], in assay [2], the EC50 is above 10000 nM and the “β-Arrestin assay % activation” value stood at 1%. Further, the “MRGPRX2 antagonistic potency” value in assay [3] was “abolished antagonistic activity”.
In the case of `CN(C)CCCN1c2ccccc2CCc2ccc(Cl)cc21` [clomipramine, reference compound], the “EC80 of agonist, β-arrestin assay” value in assay [1] is 13000 nM.
